Source: US20240011030A1, “TREATMENTS FOR RETINAL DEGENERATIVE DISEASES” (Novartis AG, priority 2020, published 2024)

How the values were obtained:
Format in all cases: cell-based, human
[1] = test system: DDX58/RIG-I; test: CRISPR/Cas9 KO, IL-6 secretion by ELISA after nucleic acid stimulation; settings: ARPE-19-RIG-I KO, 0.25 μg/ml nucleic acid for 24 hours, FIG. 4B
Procedure: In addition to the type I IFN response, nucleic acid sensing can also activate NFκB-dependent cytokine release. IL-6 secretion was measured in ARPE19-Cas9, Control gRNA, and RIG-I gRNA cell line cultures 24 hours after nucleic acid stimulation to evaluate nucleic acid-induced NFκB activation in RPE cells. All cells were stimulated with 0.25 μg/ml nucleic acid for 24 hours, after which IL-6 secretion was measured by ELISA.
(§1) ARPE-19 cells stably expressing the Cas9 gene (ARPE19-Cas9) were generated by lentiviral transduction of ARPE-19 cells. Virus was harvested from supernatants of HEK-293T cells (ATCC) cotransfected with the in-house lentiviral vector pNGx_LV_c010 (39) and Lentiviral Packaging Plasmid Mix (Cellecta, Mountain View, CA; #CPCP-K2A) using TransIT-293 Transfection Reagent (MirusBio, Madison, WI). ARPE19-Cas9 cells were selected with 125 μg/mL HygromycinB (Invitrogen, Carlsbad, CA) and Cas9 expression was verified by western blot using Anti-FLAG primary antibody (Sigma-Aldrich #F1804). ARPE-19 RIG-I KO cells were generated by sgRNA expression in ARPE-19-Cas9 cells by lentiviral infection using the in-house lentiviral vector pNGx_LV_g003 (39). The sgRNA sequence targeting DDX58/RIG-I is 5′-[…]-3′ (SEQ ID NO: 1).

[2] = test system: DDX58/RIG-I; test: CRISPR/Cas9 KO, IFNβ secretion by ELISA after nucleic acid stimulation; settings: ARPE19-Cas9 cells, 0.25 μg/ml nucleic acid for 24 hours, FIG. 4A
Procedure: Further validation of the importance of RIG-I as an intracellular nucleic acid sensor was performed using CRISPR/Cas9 KO experiments in ARPE-19 cells. An ARPE-19 cell line stably expressing Cas9 (ARPE19-Cas9) was generated, along with control gRNA and RIG-I gRNA-transduced cell lines. ARPE-19 control gRNA and ARPE-19 RIG-I gRNA cells were generated by sgRNA expression in ARPE-19-Cas9 cells by lentiviral infection. The sgRNA sequence targeting DDX58/RIG-I was 5′-[…]-3′ (SEQ ID NO:1). Control sgRNA sequences used were: 5′-[…]-3′ (SEQ ID NO:8), 5′-[…]-3′ (SEQ ID NO:9), 5′-[…]-3′ (SEQ ID NO:10), and 5′-[…]-3′ (SEQ ID NO: 11). […] All cells were stimulated with 0.25 μg/ml nucleic acid for 24 hours, after which IFNβ secretion was measured by ELISA.
ARPE-19 cells stably expressing the Cas9 gene (ARPE19-Cas9) were generated by lentiviral transduction of ARPE-19 cells. […]
For ELISA, assays were run using Meso Scale Discovery plates (Meso Scale Diagnostics, Rockville, MD). […] Lysates or conditioned media were measured in 384-well plates using antibody pairs for ISG15 (R&D #AF4845, #A-830), IFNβ (R&D #DY814), IFNα1 (abcam #ab215408), IFNγ (R&D #DY285B), IFNλ1/3 (R&D #DY1598B), and cGAS (Cayman #23853, CST #66546). Protein levels were measured according to manufacturer instructions, and detected on a Meso Sector S 600 imager.

[3] = test system: DDX58/RIG-I; test: anti-RIG-I/DDX58 western blot verifying knockout; settings: ARPE-19-Cas9 cells transduced with gRNA, FIG. 10D
Procedure: as §1, with “1). Control sgRNA sequences were:” for “1).”
Knockout was verified by western blot (FIG. 10D).
For western blot, samples (30 μg of protein) were dissolved in sample buffer (Invitrogen) and boiled for 5 min at 100° C. The sample was then separated by Criterion™ TGX™ precast gel electrophoresis and electrotransferred onto nitrocellulose membranes (Bio-Rad, Hercules, CA). […] The immuno-reactive proteins were detected using SuperSignal™ West Femto Maximum sensitivity substrate (ThermoFisher Scientific) and imaged on FluorChem M (ProteinSimple, San Jose, CA).

[4] = test system: RPE cells; test: ISG15 induction by IFN stimulation (ELISA); settings: THP1, ARPE-19 or iPS-RPE cells, IFNs up to 100 μg/ml, 24 hours, FIGS. 2D to 2F
Procedure: To test whether IFNs can induce an IFN response and, if so, which IFNs can induce an IFN response, cells were treated with different IFNs (IFNα1, IFNβ, IFNγ, or IFNλ1/2/3), and ISG15 induction was measured. Cells were treated with different IFN types at 100 ng/ml each (FIG. 2D) or 0 ng/ml IFN, 0.1 ng/ml IFN, 1 ng/ml IFN, 10 ng/ml IFN, or 100 ng/ml IFN (FIGS. 2E and 2F). ISG15 expression in was detected by ELISA 24 hours after treatment as described above, using antibody pairs for ISG15 (R&D #AF4845, #A-830).
For ELISA, assays were run using Meso Scale Discovery plates (Meso Scale Diagnostics, Rockville, MD). Lysates were extracted using cell lysis buffer (CST #9803), and supplemented with protease and phosphatase inhibitors. Lysates or conditioned media were measured in 384-well plates using antibody pairs for ISG15 (R&D #AF4845, #A-830), IFNβ (R&D #DY814), IFNα1 (abcam #ab215408), IFNγ (R&D #DY285B), IFNλ1/3 (R&D #DY1598B), and cGAS (Cayman #23853, CST #66546). Protein levels were measured according to manufacturer instructions, and detected on a Meso Sector S 600 imager.

| Molecule | poly(I:C)-induced IL-6 release [1] | IFNβ secretion response to all nucleic acid species tested [2] | DDX58 protein by western blot [3] | ISG15 induction in response to IFN stimulation [4] |
| --- | --- | --- | --- | --- |
| 5′-ACTCACCCTCCCTAAACCAG-3′ (expressed or natural sequence) [RIG-I gRNA] | only partially reduced | completely abrogated | lack of detectable DDX58 protein |  |
| IFNα: type I interferon purchased from R&D Systems (protein, UniProt P01562 24-189, looked up) Interferon alpha-1/13: CDLPETHSLDNRRTLMLLAQMSRISPSSCLMDRHDFGFPQEEFDGNQFQKAPAISVLHELIQQIFNLFTTKDSSAAWDEDLLDKFCTELYQQLNDLEACVMQEERVGETPLMNADSILAVKKYFRRITLYLTEKKYSPCAWEVVRAEIMRSLSLSTNLQERLRRKE |  |  |  | primarily responded |
